According to ChEMBL document CHEMBL3259522, “Synthesis and biological evaluation of some 2-(3,5-dimethyl-1H-pyrazol-1-yl)-1-arylethanones: antibacterial, DNA photocleavage, and anticancer activities” (2014):
≈ marks a conversion by molar mass, not a printed value. Calls of active or inactive are those of the source. No cut-off for these calls is given here.

Experiments:
Pseudomonas aeruginosa [1] = experiment: Antibacterial activity against Pseudomonas aeruginosa assessed as diameter of growth inhibition zone after 24 hrs by two fold serial dilution method; type: functional
Escherichia coli [2] = experiment: Antibacterial activity against Escherichia coli assessed as diameter of growth inhibition zone after 24 hrs by two fold serial dilution method; type: functional
Klebsiella pneumoniae [3] = experiment: Antibacterial activity against Klebsiella pneumoniae assessed as diameter of growth inhibition zone after 24 hrs by two fold serial dilution method; type: functional
Staphylococcus aureus [4] = experiment: Antibacterial activity against Staphylococcus aureus assessed as diameter of growth inhibition zone after 24 hrs by two fold serial dilution method; type: functional
Enterococcus [5] = experiment: Antibacterial activity against Enterococcus assessed as diameter of growth inhibition zone after 24 hrs by two fold serial dilution method; type: functional
Pseudomonas aeruginosa [6] = experiment: Antibacterial activity against Pseudomonas aeruginosa assessed as growth inhibition after 24 hrs by two fold serial dilution method; type: functional
Escherichia coli [7] = experiment: Antibacterial activity against Escherichia coli assessed as growth inhibition after 24 hrs by two fold serial dilution method; type: functional
Klebsiella pneumoniae [8] = experiment: Antibacterial activity against Klebsiella pneumoniae assessed as growth inhibition after 24 hrs by two fold serial dilution method; type: functional
Staphylococcus aureus [9] = experiment: Antibacterial activity against Staphylococcus aureus assessed as growth inhibition after 24 hrs by two fold serial dilution method; type: functional
Enterococcus [10] = experiment: Antibacterial activity against Enterococcus assessed as growth inhibition after 24 hrs by two fold serial dilution method; type: functional
[11] = Induction of DNA degradation in supercoiled plasmid DNA (unknown origin) by agarose gel electrophoresis in absence of UV light
[12] = Induction of DNA degradation in open circular plasmid DNA (unknown origin) by agarose gel electrophoresis in absence of UV light
HCT-116 [13] = experiment: Anticancer activity against human HCT116 cells assessed as cell viability at 10 uM after 48 hrs by MTT assay; type: functional; conditions: HCT-116, 48 h, read-out: Activity
HCT-116 [14] = experiment: Anticancer activity against human HCT116 cells assessed as cell viability at 25 uM after 48 hrs by MTT assay; type: functional; conditions: HCT-116, 48 h, read-out: Activity
HCT-116 [15] = experiment: Anticancer activity against human HCT116 cells assessed as cell viability at 50 uM after 48 hrs by MTT assay; type: functional; conditions: HCT-116, 48 h, read-out: Activity
SK-OV-3 = experiment: Anticancer activity against human SKOV3 cells assessed as cell viability after 72 hrs by MTT assay; type: functional, cell-based
HCT-116 [16] = experiment: Anticancer activity against human HCT116 cells assessed as cell viability after 72 hrs by MTT assay; type: functional, cell-based
HT-29 [17] = experiment: Anticancer activity against human HT-29 cells assessed as cell viability after 72 hrs by MTT assay; type: functional, cell-based
DU-145 [18] = experiment: Anticancer activity against human DU145 cells assessed as cell viability after 72 hrs by MTT assay; type: functional, cell-based
A549 = experiment: Anticancer activity against human A549 cells assessed as cell viability after 72 hrs by MTT assay; type: functional, cell-based
Escherichia coli [19] = experiment: Antibacterial activity against Escherichia coli assessed as growth inhibition after 24 hrs by two fold serial dilution method relative to ampicillin; type: functional; parameters: scale not given: the % may be the effect or the level left
Staphylococcus aureus [20] = experiment: Antibacterial activity against Staphylococcus aureus assessed as growth inhibition after 24 hrs by two fold serial dilution method relative to ampicillin; type: functional; parameters: scale not given: the % may be the effect or the level left
Pseudomonas aeruginosa [21] = experiment: Antibacterial activity against Pseudomonas aeruginosa assessed as growth inhibition after 24 hrs by two fold serial dilution method relative to ampicillin; type: functional; parameters: scale not given: the % may be the effect or the level left
Enterococcus [22] = experiment: Antibacterial activity against Enterococcus assessed as growth inhibition after 24 hrs by two fold serial dilution method relative to ampicillin; type: functional; parameters: scale not given: the % may be the effect or the level left
HT-29 [23] = experiment: Anticancer activity against human HT-29 cells assessed as cell viability at 50 uM after 72 hrs by MTT assay; type: functional, cell-based
DU-145 [24] = experiment: Anticancer activity against human DU145 cells assessed as cell viability at 50 uM after 72 hrs by MTT assay; type: functional, cell-based
HCT-116 [25] = experiment: Anticancer activity against human HCT116 cells assessed as cell viability after 48 hrs by MTT assay; type: functional, cell-based
[26] = Induction of DNA photocleavage in supercoiled plasmid DNA (unknown origin) at 60 ug by agarose gel electrophoresis in presence of UV light
[27] = Induction of DNA photocleavage in open circular plasmid DNA (unknown origin) at 60 ug by agarose gel electrophoresis in presence of UV light
[28] = Induction of DNA photocleavage in supercoiled plasmid DNA (unknown origin) at 30 ug by agarose gel electrophoresis in presence of UV light
[29] = Induction of DNA photocleavage in open circular plasmid DNA (unknown origin) at 30 ug by agarose gel electrophoresis in presence of UV light
[30] = Induction of DNA photocleavage in supercoiled plasmid DNA (unknown origin) at 15 ug by agarose gel electrophoresis in presence of UV light
[31] = Induction of DNA photocleavage in open circular plasmid DNA (unknown origin) at 15 ug by agarose gel electrophoresis in presence of UV light
[32] = Induction of DNA photocleavage in supercoiled plasmid DNA (unknown origin) at 5 ug by agarose gel electrophoresis in presence of UV light
[33] = Induction of DNA photocleavage in open circular plasmid DNA (unknown origin) at 5 ug by agarose gel electrophoresis in presence of UV light
[34] = Induction of DNA photocleavage in supercoiled plasmid DNA (unknown origin) at 2.5 ug by agarose gel electrophoresis in presence of UV light
[35] = Induction of DNA photocleavage in open circular plasmid DNA (unknown origin) at 2.5 ug by agarose gel electrophoresis in presence of UV light
[36] = Induction of DNA photocleavage in supercoiled plasmid DNA (unknown origin) at 1 ug by agarose gel electrophoresis in presence of UV light
[37] = Induction of DNA photocleavage in open circular plasmid DNA (unknown origin) at 1 ug by agarose gel electrophoresis in presence of UV light

Compound | MIC (Pseudomonas aeruginosa [6]) [µg/mL] | MIC (Escherichia coli [7]) [µg/mL] | MIC (Klebsiella pneumoniae [8]) [µg/mL] | MIC (Staphylococcus aureus [9]) [µg/mL] | MIC (Enterococcus [10]) [µg/mL] | Activity [11] | Activity [12] | Activity [26] | diameter of the inhibition zone (DIZ) (Pseudomonas aeruginosa [1]) [mm] | diameter of the inhibition zone (DIZ) (Escherichia coli [2]) [mm] | diameter of the inhibition zone (DIZ) (Klebsiella pneumoniae [3]) [mm] | diameter of the inhibition zone (DIZ) (Staphylococcus aureus [4]) [mm] | diameter of the inhibition zone (DIZ) (Enterococcus [5]) [mm] | viability at 10 µM (HCT-116 [13]) [%] | viability at 25 µM (HCT-116 [14]) [%] | viability at 50 µM (HCT-116 [15]) [%] | Activity (SK-OV-3) | Activity (Escherichia coli [19]) [%] | Activity (Pseudomonas aeruginosa [21]) [%] | Activity (HCT-116 [25]) | further results
Cc1cc(C)n(CC(=O)c2ccccc2)n1 | 64 (≈ 299 µM) | 512 (≈ 2390 µM) | 64 (≈ 299 µM) | 512 (≈ 2390 µM) | 512 (≈ 2390 µM) | inactive | inactive |  | 13 | 11 | 10 | 10 | 13 | 81.4 | 55.4 | 52.4 | inactive | 12.5 | 12.5 |  | Activity (HT-29 [23]): inactive; Activity (DU-145 [24]): inactive
Cc1cc(C)n(CC(=O)c2cccc(Cl)c2)n1 |  | 512 (≈ 2060 µM) |  |  | 512 (≈ 2060 µM) | inactive | inactive |  |  | 10 |  |  | 10 |  |  |  |  |  |  | inactive | 
Cc1cc(C)n(CC(=O)c2cccc3ccccc23)n1 |  |  |  |  | 256 (≈ 968 µM) | inactive | inactive | Active |  |  |  |  | 12 | 73.4 | 60.8 | 34.6 | inactive |  |  |  | Activity [27]: Active; Activity (HT-29 [23]): inactive; Activity (DU-145 [24]): inactive; Activity (A549): Active

Continued by falling MIC (Enterococcus [10]), values first:

MIC (Pseudomonas aeruginosa [6]) [µg/mL] | MIC (Escherichia coli [7]) [µg/mL] | MIC (Klebsiella pneumoniae [8]) [µg/mL] | MIC (Staphylococcus aureus [9]) [µg/mL] | MIC (Enterococcus [10]) [µg/mL] | Activity [11] | Activity [12] | Activity [26] | Compound | diameter of the inhibition zone (DIZ) (Pseudomonas aeruginosa [1]) [mm] | diameter of the inhibition zone (DIZ) (Escherichia coli [2]) [mm] | diameter of the inhibition zone (DIZ) (Klebsiella pneumoniae [3]) [mm] | diameter of the inhibition zone (DIZ) (Staphylococcus aureus [4]) [mm] | diameter of the inhibition zone (DIZ) (Enterococcus [5]) [mm] | viability at 10 µM (HCT-116 [13]) [%] | viability at 25 µM (HCT-116 [14]) [%] | viability at 50 µM (HCT-116 [15]) [%] | Activity (SK-OV-3) | Activity (Escherichia coli [19]) [%] | Activity (Pseudomonas aeruginosa [21]) [%] | Activity (HCT-116 [25]) | further results
 | 256 (≈ 987 µM) |  | 128 (≈ 494 µM) | 256 (≈ 987 µM) | inactive | inactive | Active | Cc1cc(C)n(CC(=O)c2ccc([N+](=O)[O-])cc2)n1 |  | 11 |  | 13 | 14 |  |  |  |  |  |  | inactive | Activity [27]: Active; Activity [28]: Active; Activity [29]: Active; Activity [30]: Active; Activity [31]: Active; Activity [32]: Active; Activity [33]: Active; Activity [34]: Active; Activity [35]: Active; Activity [36]: Active; Activity [37]: Active
256 (≈ 1100 µM) | 64 (≈ 276 µM) | 256 (≈ 1100 µM) | 256 (≈ 1100 µM) | 64 (≈ 276 µM) | inactive | inactive | Active | Cc1cc(C)n(CC(=O)c2ccc(F)cc2)n1 | 11 | 15 | 9 | 11 | 15 |  |  |  |  | 12.5 | 12.5 | inactive | Activity [27]: Active; Activity [28]: Active; Activity [29]: Active; Activity [30]: Active; Activity [31]: Active
64 (≈ 242 µM) | 16 (≈ 60.5 µM) | 64 (≈ 242 µM) | 8 (≈ 30.3 µM) | 16 (≈ 60.5 µM) | inactive | inactive |  | Cc1cc(C)n(CC(=O)c2ccc3ccccc3c2)n1 | 14 | 12 | 11 | 10 | 15 | 56.8 | 52.6 | 36.5 | inactive | 50 | 12.5 |  | Activity (HCT-116 [16]): Active; Activity (HT-29 [17]): Active; Activity (DU-145 [18]): Active; Activity (A549): Active; Activity (Staphylococcus aureus [20]): 25%; Activity (Enterococcus [22]): 12.5%
